Where two headings read alike, the source gives them in different places.
How the values were obtained:
[1] = test system: heightened spontaneous hind limb movements; test: Spontaneous hind limb reflex activity in spinally transected rats (hyperreflexia); format: in vivo; details: for Integrated Activity, % of Control: ip, 30 minutes after dosing, spinally transected rats; for muscle spasticity: intraperitoneally
Protocol: The effectiveness of the compounds of this invention for treating muscle spasticity resulting from spinal trauma was tested in rats with heightened spontaneous hind limb movements. Four to six weeks before testing, anesthetized rats were spinally transected at the mid-thoracic level, resulting in this form of spontaneous limb activity. 4-Methyl-3-phenyl-5-methylsulfonyl-4H-1,2,4-triazole or clonidine were given intraperitoneally, and after 30-minutes reflex activity was measured in treated animals and untreated controls by a computerized apparatus designed to record, integrate and analyze this activity. […]

[2] = test system: strychnine-induced seizures; test: animal or person; format: in vivo, mice; details: for ED50: Mus musculus, read-out: ED₅₀
Protocol: Groups of 10 to 20 male mice are administered one or more doses of test compound in an appropriate vehicle or, for comparison, the vehicle alone. At a selected time thereafter, strychnine sulfate, prepared as a solution in distilled water, is administered intraperitoneally at a dose of 2.7 mg/kg. […] Absence of tonic extension for greater than 15 minutes after strychnine administration is considered significant protection.

Structure (SMILES): Clc1cccc(Cl)c1N=C1NCCN1 [Clonidine, clonidine, reference compound]
- Integrated Activity, % of Control ([1]; 3.1 µg/kg): 130.2 ± 43.9 % of Control
- Integrated Activity, % of Control ([1]; 12.5 µg/kg): 50.4 ± 9.8 % of Control
- Integrated Activity, % of Control ([1]; 50.0 µg/kg): 32.5 ± 9.5 % of Control
- muscle spasticity ([1]; rats treated with more than 3.1 µg/kg): substantial reduction

Structure (SMILES): Cn1c(-c2ccccc2)nnc1S(C)(=O)=O [4-Methyl-3-phenyl-5-methylsulfonyl-4H-1,2,4-triazole]
- ED50 ([2]; ip): 12.8 mg/kg
- ED50 ([2]; po): 7.3 mg/kg
- Integrated Activity, % of Control ([1]; 5.0 mg/kg): 137 ± 10 % of Control
- Integrated Activity, % of Control ([1]; 10.0 mg/kg): 42.9 ± 12.7 % of Control
- Integrated Activity, % of Control ([1]; 20.0 mg/kg): 75.3 ± 19.3 % of Control
- Integrated Activity, % of Control ([1]; 40.0 mg/kg): 51.3 ± 11.9 % of Control
- muscle spasticity ([1]; rats treated with more than 5 mg/kg): substantial reduction

Structure (SMILES): NCC(CC(=O)O)c1ccc(Cl)cc1 (stereo not drawn) [baclofen, reference compound]
- antagonism of strychnine-induced seizures ([2]; dosage range of from 12.5 to 200 mg/kg i.p., mice): over 50%
- protection ([2]; no dose (12.5 to 200 mg/kg i.p.) causes 100% protection, mice): < 100%

Structure (SMILES): CCS(=O)(=O)c1nnc(-c2ccccc2)n1C [4-methyl-3-phenyl-5-ethylsulfonyl-4H-1,2,4-triazole]
- ED50 ([2]; ip): 19.3 mg/kg
- ED50 ([2]; po): 8.5 mg/kg

Structure (SMILES): Clc1ccc2nsnc2c1NC1=NCCN1 [Tizanidine, reference compound]
- maximal protection ([2]; at 3.1 mg/kg i.p., doses of up to 50 mg/kg do not cause a greater effect, mice): 60%

Structure (SMILES): CC[S+]([O-])c1nnc(-c2ccccc2)n1C (stereo not drawn) [4-methyl-3-phenyl-5-ethylsulfinyl-4H-1,2,4-triazole]
- ED50 ([2]; ip): 14.4 mg/kg
- ED50 ([2]; po): 8.1 mg/kg

Structure (SMILES): CN1C(=O)CN=C(c2ccccc2)c2cc(Cl)ccc21 [Diazepam, reference compound]
- ED50 ([2]; ip): 1.2 mg/kg

Structure (SMILES): CCSc1nnc(-c2ccccc2F)n1C [4-methyl-3-(2-fluorophenyl)-5-ethylthio-4H-1,2,4-triazole]
- ED50 ([2]; ip): 18.6 mg/kg
- ED50 ([2]; po): 15.1 mg/kg
